Source: patent US9062124B2, “GIP-based mixed agonists for treatment of metabolic disorders and obesity” (priority 2008, dated 2015)
Where a SMILES comes first, the peptide text is derived from it. [ ]: non-standard residue; d: D form. The star is where a group is joined. Myristoyl = CCCCCCCCCCCCCC(=O)*; Aib = CC(C)(N)C(=O)O

What was measured:
Assay type in all cases: cell-based
glucagon receptor = biological target: T1, glucagon receptor (Homo sapiens, UniProt P47871); test: cAMP synthesis functional assay (firefly luciferase reporter in HEK293 cells), glucagon receptor; settings: for EC50: Glucagon Receptor EC50, cAMP luciferase reporter assay as in Example 16
T1 construct: expressed in transfected cells; host or cells: HEK293
T1 sequence (P47871 26-477): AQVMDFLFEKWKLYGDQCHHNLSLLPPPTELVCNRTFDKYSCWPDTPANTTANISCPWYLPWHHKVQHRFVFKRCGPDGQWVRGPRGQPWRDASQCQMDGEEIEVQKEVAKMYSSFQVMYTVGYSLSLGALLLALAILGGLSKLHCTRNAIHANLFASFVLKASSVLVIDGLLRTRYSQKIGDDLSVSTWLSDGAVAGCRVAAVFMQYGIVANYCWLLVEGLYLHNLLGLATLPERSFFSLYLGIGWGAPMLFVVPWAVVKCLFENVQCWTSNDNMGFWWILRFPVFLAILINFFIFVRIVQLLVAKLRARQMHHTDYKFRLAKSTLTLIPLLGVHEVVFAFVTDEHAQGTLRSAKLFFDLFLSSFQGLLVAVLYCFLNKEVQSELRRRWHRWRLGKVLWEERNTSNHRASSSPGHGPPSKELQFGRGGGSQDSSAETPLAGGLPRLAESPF

GLP-1 receptor = biological target: T2, GLP-1 receptor (Homo sapiens, UniProt P43220); test: cAMP synthesis functional assay (firefly luciferase reporter in HEK293 cells), GLP-1 receptor; settings: for EC50: GLP-1 Receptor EC50, cAMP luciferase reporter assay as in Example 16
T2 construct: expressed in transfected cells; host or cells: HEK293
T2 sequence (P43220 24-463, species assumed): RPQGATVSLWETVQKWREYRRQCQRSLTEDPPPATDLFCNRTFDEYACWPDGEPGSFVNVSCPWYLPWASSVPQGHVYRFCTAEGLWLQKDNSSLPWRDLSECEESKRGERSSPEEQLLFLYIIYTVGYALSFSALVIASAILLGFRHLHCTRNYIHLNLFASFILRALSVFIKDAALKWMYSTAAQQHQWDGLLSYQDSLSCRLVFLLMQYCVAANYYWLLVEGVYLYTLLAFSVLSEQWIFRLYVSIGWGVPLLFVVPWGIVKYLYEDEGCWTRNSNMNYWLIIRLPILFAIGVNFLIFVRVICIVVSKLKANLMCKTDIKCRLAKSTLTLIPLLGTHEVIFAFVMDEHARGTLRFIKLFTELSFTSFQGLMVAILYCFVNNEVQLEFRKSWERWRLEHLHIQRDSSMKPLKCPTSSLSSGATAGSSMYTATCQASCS

GIP receptor = biological target: T3, GIP receptor (Homo sapiens, UniProt P48546); test: cAMP synthesis functional assay (firefly luciferase reporter in HEK293 cells), GIP receptor; settings: for EC50: GIP Receptor EC50, cAMP luciferase reporter assay as in Example 16
T3 construct: expressed in transfected cells; host or cells: HEK293
T3 sequence (P48546 22-466): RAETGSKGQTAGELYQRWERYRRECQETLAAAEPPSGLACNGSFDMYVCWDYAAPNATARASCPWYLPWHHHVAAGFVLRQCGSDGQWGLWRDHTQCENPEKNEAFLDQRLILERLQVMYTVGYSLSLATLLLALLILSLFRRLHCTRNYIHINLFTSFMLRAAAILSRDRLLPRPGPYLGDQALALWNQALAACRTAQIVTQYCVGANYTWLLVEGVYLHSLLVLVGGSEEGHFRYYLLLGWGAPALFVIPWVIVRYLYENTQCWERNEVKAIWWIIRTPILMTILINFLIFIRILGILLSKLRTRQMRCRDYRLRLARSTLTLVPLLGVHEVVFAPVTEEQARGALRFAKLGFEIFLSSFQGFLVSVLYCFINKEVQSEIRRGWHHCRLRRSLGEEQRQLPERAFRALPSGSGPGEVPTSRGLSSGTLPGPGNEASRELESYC

[1] = relative to the standard (Std.) EC50 of the same run
[2] = Table 4, relative to the native hormone

CCCCCCCCCCCCCC(=O)NCCCC[C@@H](NC(=O)[C@H](CO)NC(=O)[C@@H]1CCCN1C(=O)[C@@H]1CCCN1C(=O)[C@@H]1CCCN1C(=O)[C@H](C)NC(=O)CNC(=O)[C@H](CO)NC(=O)[C@H](CO)NC(=O)[C@@H]1CCCN1C(=O)CNC(=O)CNC(=O)[C@H](C)NC(=O)[C@H](CC(C)C)NC(=O)[C@H](CC(C)C)NC(=O)[C@H](Cc1c[nH]c2ccccc12)NC(=O)[C@H](CS)NC(=O)[C@@H](NC(=O)[C@H](Cc1ccccc1)NC(=O)[C@H](CCC(=O)O)NC(=O)C(C)(C)NC(=O)[C@H](C)NC(=O)[C@H](C)NC(=O)[C@H](CCC(N)=O)NC(=O)[C@H](CCCCN)NC(=O)[C@H](CC(=O)O)NC(=O)[C@H](CC(C)C)NC(=O)[C@H](Cc1ccc(O)cc1)NC(=O)[C@@H](NC(=O)[C@H](CO)NC(=O)[C@H](Cc1ccc(O)cc1)NC(=O)[C@H](CC(=O)O)NC(=O)[C@H](CO)NC(=O)[C@@H](NC(=O)[C@H](Cc1ccccc1)NC(=O)[C@@H](NC(=O)CNC(=O)[C@H](CCC(=O)O)NC(=O)C(C)(C)NC(=O)[C@@H](N)Cc1ccc(O)cc1)[C@@H](C)O)[C@@H](C)O)[C@@H](C)CC)C(C)C)C(N)=O [mt-333]
EC50 (glucagon receptor): 690 pM | Glucagon Receptor relative activity (glucagon receptor; [1]): 2.80% | EC50 (GLP-1 receptor): 2.8 pM | GLP-1 Receptor relative activity (GLP-1 receptor; [1]): 85.71% | EC50 (GIP receptor): 3.4 pM | GIP Receptor relative activity (GIP receptor; [1]): 226.47%

CC[C@H](C)[C@H](NC(=O)[C@H](CO)NC(=O)[C@H](Cc1ccc(O)cc1)NC(=O)[C@H](CC(=O)O)NC(=O)[C@H](CO)NC(=O)[C@@H](NC(=O)[C@H](Cc1ccccc1)NC(=O)[C@@H](NC(=O)CNC(=O)[C@H](CCC(=O)O)NC(=O)C(C)(C)NC(=O)[C@@H](N)Cc1ccc(O)cc1)[C@@H](C)O)[C@@H](C)O)C(=O)N[C@@H](Cc1ccc(O)cc1)C(=O)N[C@@H](CC(C)C)C(=O)N[C@@H](CC(=O)O)C(=O)N[C@@H](CCCCN)C(=O)N[C@@H](CCC(N)=O)C(=O)N[C@@H](C)C(=O)N[C@@H](C)C(=O)NC(C)(C)C(=O)N[C@@H](CCC(=O)O)C(=O)N[C@@H](Cc1ccccc1)C(=O)N[C@H](C(=O)N[C@@H](CS)C(=O)N[C@@H](Cc1c[nH]c2ccccc12)C(=O)N[C@@H](CC(C)C)C(=O)N[C@@H](CC(C)C)C(=O)N[C@@H](C)C(=O)NCC(=O)NCC(=O)N1CCC[C@H]1C(=O)N[C@@H](CO)C(=O)N[C@@H](CO)C(=O)NCC(=O)N[C@@H](C)C(=O)N1CCC[C@H]1C(=O)N1CCC[C@H]1C(=O)N1CCC[C@H]1C(=O)N[C@@H](CO)C(=O)N[C@H](CCCCN)C(N)=O)C(C)C [mt-334]
EC50 (glucagon receptor): 7070 pM | Glucagon Receptor relative activity (glucagon receptor; [1]): 0.27% | EC50 (GLP-1 receptor): 3.4 pM | GLP-1 Receptor relative activity (GLP-1 receptor; [1]): 70.59% | EC50 (GIP receptor): 4.1 pM | GIP Receptor relative activity (GIP receptor; [1]): 187.80%

CCCCCCCCCCCCCC(=O)NCCCC[C@H](NC(=O)[C@H](CC(=O)O)NC(=O)[C@H](CO)NC(=O)[C@@H](NC(=O)[C@H](Cc1ccccc1)NC(=O)[C@@H](NC(=O)CNC(=O)[C@H](CCC(=O)O)NC(=O)C(C)(C)NC(=O)[C@@H](N)Cc1ccc(O)cc1)[C@@H](C)O)[C@@H](C)O)C(=O)N[C@@H](CO)C(=O)N[C@H](C(=O)N[C@@H](Cc1ccc(O)cc1)C(=O)N[C@@H](CC(C)C)C(=O)N[C@@H](CC(=O)O)C(=O)N[C@@H](CCCCN)C(=O)N[C@@H](CCC(N)=O)C(=O)N[C@@H](C)C(=O)N[C@@H](C)C(=O)NC(C)(C)C(=O)N[C@@H](CCC(=O)O)C(=O)N[C@@H](Cc1ccccc1)C(=O)N[C@H](C(=O)N[C@@H](CS)C(=O)N[C@@H](Cc1c[nH]c2ccccc12)C(=O)N[C@@H](CC(C)C)C(=O)N[C@@H](CC(C)C)C(=O)N[C@@H](C)C(=O)NCC(=O)NCC(=O)N1CCC[C@H]1C(=O)N[C@@H](CO)C(=O)N[C@@H](CO)C(=O)NCC(=O)N[C@@H](C)C(=O)N1CCC[C@H]1C(=O)N1CCC[C@H]1C(=O)N1CCC[C@H]1C(=O)N[C@@H](CO)C(N)=O)C(C)C)[C@@H](C)CC [mt-337] (H-Y[Aib]EGTFTSDK(Myristoyl)SIYLDKQAA[Aib]EFVCWLLAGGPSSGAPPPS-NH2; N-terminus assumed)
Glucagon Receptor relative activity (glucagon receptor; [1]): 0.02% | EC50 (GLP-1 receptor): 8.2 pM | GLP-1 Receptor relative activity (GLP-1 receptor; [1]): 74.39% | EC50 (GIP receptor): 8 pM | GIP Receptor relative activity (GIP receptor; [1]): 115.00%

CC[C@H](C)[C@H](NC(=O)[C@H](CO)NC(=O)[C@H](CCCCN)NC(=O)[C@H](CC(=O)O)NC(=O)[C@H](CO)NC(=O)[C@@H](NC(=O)[C@H](Cc1ccccc1)NC(=O)[C@@H](NC(=O)CNC(=O)[C@H](CCC(=O)O)NC(=O)C(C)(C)NC(=O)[C@@H](N)Cc1ccc(O)cc1)[C@@H](C)O)[C@@H](C)O)C(=O)N[C@@H](Cc1ccc(O)cc1)C(=O)N[C@@H](CC(C)C)C(=O)N[C@@H](CC(=O)O)C(=O)N[C@@H](CCCCN)C(=O)N[C@@H](CCC(N)=O)C(=O)N[C@@H](C)C(=O)N[C@@H](C)C(=O)NC(C)(C)C(=O)N[C@@H](CCC(=O)O)C(=O)N[C@@H](Cc1ccccc1)C(=O)N[C@H](C(=O)N[C@@H](CS)C(=O)N[C@@H](Cc1c[nH]c2ccccc12)C(=O)N[C@@H](CC(C)C)C(=O)N[C@@H](CC(C)C)C(=O)N[C@@H](C)C(=O)NCC(=O)NCC(=O)N1CCC[C@H]1C(=O)N[C@@H](CO)C(=O)N[C@@H](CO)C(=O)NCC(=O)N[C@@H](C)C(=O)N1CCC[C@H]1C(=O)N1CCC[C@H]1C(=O)N1CCC[C@H]1C(=O)N[C@@H](CO)C(N)=O)C(C)C [mt-338] (H-Y[Aib]EGTFTSDKSIYLDKQAA[Aib]EFVCWLLAGGPSSGAPPPS-NH2; N-terminus assumed)
Glucagon Receptor relative activity (glucagon receptor; [1]): 0.01% | EC50 (GLP-1 receptor): 226 pM | GLP-1 Receptor relative activity (GLP-1 receptor; [1]): 2.70% | EC50 (GIP receptor): 23.4 pM | GIP Receptor relative activity (GIP receptor; [1]): 39.32%

CCCCCCCCCCCCCC(=O)NCCCC[C@H](NC(=O)[C@H](CO)NC(=O)[C@@H]1CCCN1C(=O)[C@@H]1CCCN1C(=O)[C@@H]1CCCN1C(=O)[C@H](C)NC(=O)CNC(=O)[C@H](CO)NC(=O)[C@H](CO)NC(=O)[C@@H]1CCCN1C(=O)CNC(=O)CNC(=O)[C@H](C)NC(=O)[C@H](CC(C)C)NC(=O)[C@H](CC(C)C)NC(=O)[C@H](Cc1c[nH]c2ccccc12)NC(=O)[C@H](CC(N)=O)NC(=O)[C@@H](NC(=O)[C@H](Cc1ccccc1)NC(=O)[C@H](CCC(=O)O)NC(=O)C(C)(C)NC(=O)[C@H](C)NC(=O)[C@H](C)NC(=O)[C@H](CCC(N)=O)NC(=O)[C@H](CCCCN)NC(=O)[C@H](CC(=O)O)NC(=O)[C@H](CC(C)C)NC(=O)[C@H](Cc1ccc(O)cc1)NC(=O)[C@@H](NC(=O)[C@H](CO)NC(=O)[C@H](Cc1ccc(O)cc1)NC(=O)[C@H](CC(=O)O)NC(=O)[C@H](CO)NC(=O)[C@@H](NC(=O)[C@H](Cc1ccccc1)NC(=O)[C@@H](NC(=O)CNC(=O)[C@H](CCC(=O)O)NC(=O)C(C)(C)NC(=O)[C@@H](N)Cc1ccc(O)cc1)[C@@H](C)O)[C@@H](C)O)[C@@H](C)CC)C(C)C)C(=O)N[C@@H](CS)C(N)=O [mt-339]
Glucagon Receptor relative activity (glucagon receptor; [1]): 0.28% | GLP-1 Receptor relative activity (GLP-1 receptor; [1]): 66.30% | GIP Receptor relative activity (GIP receptor; [1]): 230.00%

CC[C@H](C)[C@H](NC(=O)[C@H](CO)NC(=O)[C@H](Cc1ccc(O)cc1)NC(=O)[C@H](CC(=O)O)NC(=O)[C@H](CO)NC(=O)[C@@H](NC(=O)[C@H](Cc1ccccc1)NC(=O)[C@@H](NC(=O)CNC(=O)[C@H](CCC(=O)O)NC(=O)C(C)(C)NC(=O)[C@@H](N)Cc1ccc(O)cc1)[C@@H](C)O)[C@@H](C)O)C(=O)N[C@@H](Cc1ccc(O)cc1)C(=O)N[C@@H](CC(C)C)C(=O)N[C@@H](CC(=O)O)C(=O)N[C@@H](CCCCN)C(=O)N[C@@H](CCC(N)=O)C(=O)N[C@@H](C)C(=O)N[C@@H](C)C(=O)NC(C)(C)C(=O)N[C@@H](CCC(=O)O)C(=O)N[C@@H](Cc1ccccc1)C(=O)N[C@H](C(=O)N[C@@H](CC(N)=O)C(=O)N[C@@H](Cc1c[nH]c2ccccc12)C(=O)N[C@@H](CC(C)C)C(=O)N[C@@H](CC(C)C)C(=O)N[C@@H](C)C(=O)NCC(=O)NCC(=O)N1CCC[C@H]1C(=O)N[C@@H](CO)C(=O)N[C@@H](CO)C(=O)NCC(=O)N[C@@H](C)C(=O)N1CCC[C@H]1C(=O)N1CCC[C@H]1C(=O)N1CCC[C@H]1C(=O)N[C@@H](CO)C(=O)N[C@@H](CCCCN)C(=O)N[C@@H](CS)C(N)=O)C(C)C [mt-340]
Glucagon Receptor relative activity (glucagon receptor; [1]): 0.24% | GLP-1 Receptor relative activity (GLP-1 receptor; [1]): 100.00% | EC50 (GIP receptor): 2.8 pM | GIP Receptor relative activity (GIP receptor; [1]): 328.57%

CC[C@H](C)[C@H](NC(=O)[C@H](CO)NC(=O)[C@H](Cc1ccc(O)cc1)NC(=O)[C@H](CC(=O)O)NC(=O)[C@H](CO)NC(=O)[C@@H](NC(=O)[C@H](Cc1ccccc1)NC(=O)[C@@H](NC(=O)CNC(=O)[C@H](CCC(N)=O)NC(=O)C(C)(C)NC(=O)[C@@H](N)Cc1ccc(O)cc1)[C@@H](C)O)[C@@H](C)O)C(=O)N[C@@H](Cc1ccc(O)cc1)C(=O)N[C@@H](CC(C)C)C(=O)N[C@@H](CC(=O)O)C(=O)N[C@@H](CCCCN)C(=O)N[C@@H](CCC(N)=O)C(=O)N[C@@H](C)C(=O)N[C@@H](C)C(=O)NC(C)(C)C(=O)N[C@@H](CCC(=O)O)C(=O)N[C@@H](Cc1ccccc1)C(=O)N[C@H](C(=O)N[C@@H](CC(N)=O)C(=O)N[C@@H](Cc1c[nH]c2ccccc12)C(=O)N[C@@H](CC(C)C)C(=O)N[C@@H](CCSC)C(=O)N[C@@H](CC(N)=O)C(=O)NCC(=O)NCC(=O)N1CCC[C@H]1C(=O)N[C@@H](CO)C(=O)N[C@@H](CO)C(=O)NCC(=O)N[C@@H](C)C(=O)N1CCC[C@H]1C(=O)N1CCC[C@H]1C(=O)N1CCC[C@H]1C(=O)N[C@@H](CO)C(=O)N[C@@H](CCCCN)C(N)=O)C(C)C [mt-356] (H-Y[Aib]QGTFTSDYSIYLDKQAA[Aib]EFVNWLMNGGPSSGAPPPSK-NH2; N-terminus assumed)
Glucagon Receptor relative activity (glucagon receptor; [2]): 126.06% | GLP-1 Receptor relative activity (GLP-1 receptor; [2]): 224.02% | GIP Receptor relative activity (GIP receptor; [2]): 25.66%
